Results as given in patent publication US8754040B2, “Cyclic peptide compound, method for producing same, anti-infective agent, antibiotic-containing fraction, antibiotic, method for producing antibiotic, antibiotic-producing microorganism, and antibiotic produced by same” (priority 2010, dated 2014).
Converted amounts (≈) assume the structure as drawn. “Also recorded” adds a separate entry of the source. Like-named read-outs stand apart in the source and are kept apart here. Positions of bridges follow the written chain, without caps; N, C: chain ends. Non-standard residues stand in square brackets, D forms with d. Residues, ends and D or L forms follow the SMILES beside them. *: point of attachment. Hexanoyl(3R-OH,5-Me) = CC(C)C[C@@H](O)CC(=O)*; dNMeF = CN[C@H](Cc1ccccc1)C(=O)O

Assays:
[1] = system: Staphylococcus aureus; assay: silkworm Staphylococcus aureus infection model (therapeutic effect); assay type: in vivo, silkworm (larva of Bombyx mori); conditions: purification stages, Table 2
From the text: In the present invention too, a first screening to narrow down effective strains from several tens of thousands of extraordinary large numbers of strains may be done by any method as far as the antibacterial activity can be evaluated with the said method; and thus, for example, by referring to MIC, test bodies showing the antibacterial activity to Staphylococcus aureus in culture supernatant of each strain may be picked up. This is because strains not showing the antibacterial activity at all are not in the scope of examination. Any method capable of evaluating the antibacterial activity may be used; but a method with which a strain recognized to show, with referring to MIC, the antibacterial activity to Staphylococcus aureus in culture supernatant of various test strains is picked up is preferable. […]
Strains recognized to show the therapeutic effect in the silkworm Staphylococcus aureus infection model are further subjected to various separation and purification treatments wherein the therapeutic effect is evaluated in each operation by using the silkworm Staphylococcus aureus infection model. […]

[2] = system: Staphylococcus aureus (MSSA1)
From the text: (§1) Antibacterial activity of the antibiotic-substance-containing fraction at each fractionation stage from a culture produced from RH2180-5 and that of the antibiotic substance obtained therefrom by separation and purification thereof can be evaluated by MIC. […] For example, it is done with a broth microdilution method based on CLSI (formerly NCCLS: National Committee for Clinical Laboratory Standards).
Antibacterial spectrum of the RH2180-5 Peak 5 Substance to various bacteria including MRSA and VRE was studied. In addition, influence of chemical resistance was also studied. For study of the latter, Staphylococcus aureus and Enterococcus faecalis were selected, wherein measurement of MIC value of each peak substance was made by a broth microdilution method based on CLSI (formerly NCCLS: National Committee for Clinical Laboratory Standards) as to Staphylococcus aureus not showing resistance to a chemical (hereinafter abbreviated as “MSSA 1”) and two kinds of MRSA showing resistance to many chemicals including methicillin (MRSA 3 and MRSA 4; see Table 3 for resistive chemicals) for Staphylococcus aureus; and as to Enterococcus faecalis not showing resistance to a chemical (hereinafter abbreviated as “EF 1”) and showing resistance to vancomycin (hereinafter abbreviated as “VRE”) for Enterococcus faecalis.
Test microorganisms of Staphylococcus aureus and Enterococcus faecalis, the same as Test Example 1, were selected; and measurement of MIC value of each peak substance was made by a broth microdilution method based on CLSI (formerly NCCLS: National Committee for Clinical Laboratory Standards) as to MSSA 1 and EF 1, and MRSA 3, MRSA 4, and VRE, the same as Test Example 1.
Antibacterial spectrum of the foregoing RH2180-5 Peak 5 Substance to various microorganisms including MRSA and VRE was studied. Each MIC value for the case added with 10% blood serum and for the case not added with the same was measured by a broth microdilution method based on CLSI (formerly NCCLS: National Committee for Clinical Laboratory Standards).

[3] = system: Salmonella enterica
From the text: as §1
Antibacterial spectrum of the RH2180-5 Peak 5 Substance to various bacteria including MRSA and VRE was studied. In addition, influence of chemical resistance was also studied. For study of the latter, Staphylococcus aureus and Enterococcus faecalis were selected, wherein measurement of MIC value of each peak substance was made by a broth microdilution method based on CLSI (formerly NCCLS: National Committee for Clinical Laboratory Standards) as to Staphylococcus aureus not showing resistance to a chemical (hereinafter abbreviated as “MSSA 1”) and two kinds of MRSA showing resistance to many chemicals including methicillin (MRSA 3 and MRSA 4; see Table 3 for resistive chemicals) for Staphylococcus aureus; and as to Enterococcus faecalis not showing resistance to a chemical (hereinafter abbreviated as “EF 1”) and showing resistance to vancomycin (hereinafter abbreviated as “VRE”) for Enterococcus faecalis. […]

[4] = system: Listeria monocytogenes; assay type: cell-based
[5] = system: Streptococcus pyogenes; assay type: cell-based
[6] = system: Candida tropicalis pK233; assay type: cell-based
[7] = system: Cryptococcus neoformans H99; assay type: cell-based
[8] = system: Smith strain of Staphylococcus aureus; assay: mouse Staphylococcus aureus infection model (therapeutic effect); assay type: in vivo, mouse (ICR female)
Protocol: Smith strain of Staphylococcus aureus was suspended in 7% mucin+0.2 mM ferric ammonium citrate, and 6.2×10^6 (20×LD50) thereof was administered into the peritoneal cavity of 5 mice per group (ICR female of four weeks of age). Each drug was injected hypodermically 2 hours after administration of the bacterium by the method shown below.
Similarly, ED50 of vancomycin to the mouse model used this time was studied. […] Here, ED50 values were obtained by the probit method.

[9] = acute toxicity test to a mouse; assay type: in vivo
Protocol: Further, the RH2180-5 Peak 5 Substance was injected hypodermically to the mouse to study acute toxicity of the RH2180-5 Peak 5 Substance to the mouse by observation one day after the administration.

[10] = system: Staphylococcus aureus; assay: survived cell numbers (CFU) of Staphylococcus aureus after drug addition; assay type: cell-based; conditions: 25 μg/ml
Protocol: To CA-Mueller Hinton Broth medium were taken 1.8×10^8 Staphylococcus aureus, and then the foregoing RH2180-5 Peak 5 Substance (25 μg/mL), vancomycin (VM, 5 μg/mL), and gentamicin (GM, 2.5 μg/mL) were added thereinto; and then, survived cell numbers after 15 minutes, 30 minutes, 60 minutes, and 120 minutes were obtained as CFU (colony forming unit/mL).

[11] = system: Staphylococcus aureus; assay: bacteriolytic activity, absorbance at 600 nm (OD600); assay type: cell-based; conditions: concentration five times that of Test Example 1, 37° C., compared with vancomycin and daptomycin, FIG. 11
Protocol: Staphylococcus aureus was diluted in CA-Mueller Hinton Broth medium; and then, the RH2180-5 Peak 5 Substance, vancomycin, and daptomycin were added thereinto with the concentrations thereof being five times as much as those of Test Example 1; and then, the microorganism was cultured at 37° C. By using an absorption spectrometer (manufactured by Shimadzu Corp.), absorbance at 600 nm (OD600) after their addition was followed with passage of time.

CC[C@H](C)[C@@H]1NC(=O)[C@@H](Cc2c[nH]c3ccccc23)NC(=O)[C@@H](CCC(N)=O)NC(=O)[C@H](CCC(=O)O)NC(=O)[C@@H](CCCNC(=N)N)NC(=O)[C@H](CC(C)C)NC(=O)[C@@H](Cc2ccccc2)N(C)C(=O)CNC(=O)[C@H](CO)NC(=O)[C@@H](CCCNC(=N)N)NC(=O)[C@@H](NC(=O)C[C@H](O)CC(C)C)[C@@H](C)OC(=O)[C@H]([C@@H](C)O)NC1=O [Peak P5] ({Hexanoyl(3R-OH,5-Me)}-T[dR]SG[dNMeF]L[dR]E[dQ][dW]IT; ester 1-C)
ED50 [1]: 0.3 μg/g-larva
MIC ([2]; Table 3, Staphylococcus aureus (MSSA1), resistance-showing chemicals: Non): 5 µg/mL (≈ 3.09 µM)
MIC ([2]; Table 4, MSSA1): 6.3 µg/mL (≈ 3.89 µM)
MIC ([2]; Table 6, with 10% serum, Methicillin susceptible S. aureus MSSA1 (clinical isolate)): 1.5 µg/mL (≈ 0.927 µM)
MIC ([2]; Table 6, without serum, Methicillin susceptible S. aureus MSSA1 (clinical isolate)): 3.1 µg/mL (≈ 1.92 µM)
MIC ([3]; Table 3, Salmonella enteria): >100 µg/mL
MIC ([3]; Table 6, without serum, Salmonella enterica): >100 µg/mL
MIC [4]: 6.3 µg/mL (≈ 3.89 µM)
MIC [5]: 50 µg/mL (≈ 30.9 µM)
MIC [6]: >100 µg/mL
MIC [7]: >100 µg/mL
survival in the mouse Staphylococcus aureus infection model ([8]; 25 mg/kg hypodermically, no survival with PBS administration, 5 mice per group): survival of totality of mice
ED50 value relative to vancomycin ([8]; mouse Staphylococcus aureus infection model): about one third
ED50 ([8]; mouse, S. aureus Smith 6.2 × 10^6 (20 × LD50) intraperitoneal, drug injected hypodermically 2 hours later, survival one day after, probit method): 0.6 mg/kg
acute toxicity to the mouse ([9]; injected hypodermically, up to 50 mg/kg, observation one day after the administration, listed as RH2180-5 Peak 5 Substance): mouse was not killed; also recorded: no toxicity observed
highest dose without toxicity (50 mg/kg) relative to ED50 ([9]; mouse, hypodermic): 80 folds
CFU/ml of S. aureus ([10]; 15 minutes, start 1.8 × 10^8): <1 × 10^4 CFU/ml
CFU/ml of S. aureus ([10]; 30 minutes): <1 × 10^4 CFU/ml
CFU/ml of S. aureus ([10]; 60 minutes): <1 × 10^4 CFU/ml
CFU/ml of S. aureus ([10]; 120 minutes): <1 × 10^4 CFU/ml
bacteriolytic activity (decrease of absorbance OD600) [11]: shows the bacteriolytic activity
Solubility to solvents (chloroform): Insoluble
Solubility to solvents (water, ethanol, methanol, and acetonitrile): Soluble
